Test results taken from US11179400B2, “Heterocyclic compounds as RSV inhibitors” (priority 2019, dated 2021).

These molecules were tested on Human RSV-A (“Long” strain) (assay: RSV in vitro cytoprotection assay in HEp-2 cells (ATPlite read-out)). Conditions: human respiratory syncytial virus, 96 h; HEp-2 cells, genotype A “Long” strain RSV, 4-day incubation, ATPlite; read-out: Human RSV-A (“Long” strain) EC50.
Type: cell-based
Description: RSV is a single stranded negative sense RNA virus that causes respiratory tract infections which can be dangerous to infants, the elderly, and immunosuppressed individuals. Currently there is no vaccine, and therapeutic options are both costly and of limited effectiveness. These approved treatments are Ribavirin, and Palivizumab/Synagis (a monoclonal antibody). RSV has two genotypes, A and B, which differ primarily in the structure of the virus' surface “G” attachment protein. Our current primary screen focusses on RSV-A and uses an in vitro cytoprotection assay where compounds are added in 2-fold dilutions to cells which are then subjected to fully replicative viral particles. Cell viability is measured several days later along with separate measurements of compound cytotoxicity. This report focuses on the results of our most recent screening of compounds.
HEp-2 cells, (originally derived from tumors grown in irradiated-cortisonised weanling rats that had been injected with epidermoid carcinoma tissue from a person's larynx, but later found to be indistinguishable from HeLa cells by PCR DNA analysis), were used for the culturing of genotype A, “Long” strain RSV. Flasks were inoculated with RSV and viral stocks were collected once cytopathic effect (CPE) was greater than 90%. Viral stocks in 25% sucrose media were snap frozen using liquid nitrogen to increase viral stability. Viral stock titers were quantified by tissue culture infectious dose 50% (TCID50) using 8,000 cells per well and 3-fold viral dilutions across a 96-well plate, cultured for 4 days.
Following extensive parameter testing, the final assay is run as follows: HEp-2 cells are seeded into the inner 60 wells of a 96-well plate at 8,000 cells per well in a volume of 50 μL using Growth Media (DMEM without phenol red, 1% L-Glut, 1% Penn/Strep, 1% nonessential amino acids, 10% FBS). 2-Fold serial dilutions of control and test compounds are added to the wells in duplicate in a total volume of 25 μL. Viral stock is then added to the wells in a volume of 25 μL, bringing the total volume of each well to 100 μL. Each 96-well plate has a control column of 6 wells with cells and virus but no compound (negative control, max CPE), a column with cells but no compound or virus (positive control, minimum CPE), and a column with no cells or virus or compound (background plate/reagent control). The control wells with cells but no virus are given an additional 25 μL of growth media containing an equal quantity of sucrose as those wells receiving the viral stock in order to keep consistent in media and volume conditions. The outer wells of the plate are filled with 125 μL of growth media to act as a thermal and evaporative moat around the test wells. Following a 4-day incubation period, the plates are read using ATPlite (50 uL added per well), which quantifies the amount of ATP (a measure of cell health) present in each well. Assay plates are read using the Envision luminometer. In parallel, cytotoxicity is examined on an additional 96-well plate treated in an identical manner, but substituting the 25 μL of viral stock for 25 μL of growth media. […] EC50 ranges are as follows: A<0.01 μM; B 0.01-0.05 μM; C>0.05 μM.

First: CC1=C(c2ccc(C(=O)Nc3c(C)cccc3F)s2)CCN(C(=O)c2ccc(NC(=O)c3cc(C)cnc3N3CC4(CCOCC4)C3)cc2)c2ccccc21 [Example 14]
Second: Cc1cnc(N2CC3(CCOCC3)C2)c(C(=O)Nc2ccc(C(=O)N3CCC(c4ccc(C(=O)Nc5c(C)cccc5F)s4)=Cc4ccccc43)cc2)c1 [Example 6]
The EC50 of the first is higher: > 50 nM for the first, 10 to 50 nM for the second. The second is the more potent here.

Cc1ccc(C(=O)Nc2ccc(C(=O)N3CCC(c4ccc(C(=O)Nc5c(C)cccc5F)s4)=Cc4ccccc43)cc2)c(N2CC3(CCOCC3)C2)n1 [Example 8] and Cc1ccc(C(=O)Nc2ccc(C(=O)N3CCC(c4ccc(C(=O)Nc5c(F)cccc5F)s4)=Cc4ccccc43)cc2)c(N2CC3(CCOCC3)C2)n1 [Example 7] fall in the same range of EC50: 10 to 50 nM for the first, 10 to 50 nM for the second.

Cc1cnc(N2CC3(CCOCC3)C2)c(C(=O)Nc2ccc(C(=O)N3CCC(c4ccc(C(=O)NC5CCC5)s4)=Cc4ccccc43)cc2)c1 [Example 3] and Cc1cnc(N2CC3(CCOCC3)C2)c(C(=O)Nc2ccc(C(=O)N3CCC(c4ccc(C(=O)NC5CC5)s4)=Cc4ccccc43)cc2)c1 [Example 1] cannot be ordered by EC50: < 10 nM for the first, < 10 nM for the second.

Cc1cnc(N2CC3(CCOCC3)C2)c(C(=O)Nc2ccc(C(=O)N3CCC(c4ccc(C(=O)Nc5c(C)cccc5F)cc4)=Cc4ccccc43)cc2)c1 [Example 16] and Cc1cnc(N2CC3(CCOCC3)C2)c(C(=O)Nc2ccc(C(=O)N3CCC(c4ccc(C(=O)Nc5c(F)cccc5F)s4)=Cc4ccccc43)cc2)c1 [Example 2] cannot be ordered by EC50: < 10 nM for the first, < 10 nM for the second.

Compared with Cc1cnc(N2CC3(CCOCC3)C2)c(C(=O)Nc2ccc(C(=O)N3CCC(c4ccc(C(=O)NC5CC5)cc4)=Cc4ccccc43)cc2)c1 [Example 15], Cc1cnc(N2CC3(CCOCC3)C2)c(C(=O)Nc2ccc(C(=O)N3CCC(c4cc(C(=O)NC5CC5)cs4)=Cc4ccccc43)cc2)c1 [Example 12] is higher in EC50: < 10 nM for the first, 10 to 50 nM for the second. The first is the more potent here.

Cc1cnc(N2CC3(CCOCC3)C2)c(C(=O)Nc2ccc(C(=O)N3CCC(c4ccc(C(=O)NC56CC(C5)C6)s4)=Cc4ccccc43)cc2)c1 [Example 5] and Cc1ccc(C(=O)Nc2ccc(C(=O)N3CCC(c4ccc(C(=O)NC56CC(C5)C6)s4)=Cc4ccccc43)cc2)c(N2CC3(CCOCC3)C2)n1 [Example 11] fall in the same range of EC50: 10 to 50 nM for the first, 10 to 50 nM for the second.

Compared with Cc1ccc(C(=O)Nc2ccc(C(=O)N3CCC(c4ccc(C(=O)NC5CCC5)s4)=Cc4ccccc43)cc2)c(N2CC3(CCOCC3)C2)n1 [Example 10], Cc1ccc(C(=O)Nc2ccc(C(=O)N3CCC(c4ccc(C(=O)NC5CC(F)(F)C5)s4)=Cc4ccccc43)cc2)c(N2CC3(CCOCC3)C2)n1 [Example 9] is higher in EC50: < 10 nM for the first, 10 to 50 nM for the second. The first is the more potent here.

First: CC1=C(c2ccc(C(=O)NC3CC3)s2)CCN(C(=O)c2ccc(NC(=O)c3cc(C)cnc3N3CC4(CCOCC4)C3)cc2)c2ccccc21 [Example 13]
Second: Cc1cnc(N2CC3(CCOCC3)C2)c(C(=O)Nc2ccc(C(=O)N3CCC(c4ccc(C(=O)NC5CC(F)(F)C5)s4)=Cc4ccccc43)cc2)c1 [Example 4]
The EC50 of the first is higher: > 50 nM for the first, < 10 nM for the second.

Same assay, conditions: human respiratory syncytial virus, HEp-2

With O=C(Nc1ccccc1F)N[C@H]1N=C(c2ccccc2)c2ccccc2NC1=O [RSV-604, reference compound] the EC50 was ~2400 nM.
